Measurements from patent publication US20240269139A1, “COMPOUNDS FOR TARGETED PROTEIN DEGRADATION OF KINASES” (DANA-FARBER CANCER INSTITUTE, INC., priority 2020, published 2024).
Where two headings read alike, the source gives them in different places.

Tests used:
Format in all cases: cell-based
[1] = biological target: protein kinases (human kinome) (Homo sapiens, UniProt Q8NI60)
[2] = biological target: T1, protein kinases (human kinome) (Homo sapiens, UniProt Q969Z0); conditions: Accession Q969Z0-1, direction down
T1 sequence (Q969Z0 108-631): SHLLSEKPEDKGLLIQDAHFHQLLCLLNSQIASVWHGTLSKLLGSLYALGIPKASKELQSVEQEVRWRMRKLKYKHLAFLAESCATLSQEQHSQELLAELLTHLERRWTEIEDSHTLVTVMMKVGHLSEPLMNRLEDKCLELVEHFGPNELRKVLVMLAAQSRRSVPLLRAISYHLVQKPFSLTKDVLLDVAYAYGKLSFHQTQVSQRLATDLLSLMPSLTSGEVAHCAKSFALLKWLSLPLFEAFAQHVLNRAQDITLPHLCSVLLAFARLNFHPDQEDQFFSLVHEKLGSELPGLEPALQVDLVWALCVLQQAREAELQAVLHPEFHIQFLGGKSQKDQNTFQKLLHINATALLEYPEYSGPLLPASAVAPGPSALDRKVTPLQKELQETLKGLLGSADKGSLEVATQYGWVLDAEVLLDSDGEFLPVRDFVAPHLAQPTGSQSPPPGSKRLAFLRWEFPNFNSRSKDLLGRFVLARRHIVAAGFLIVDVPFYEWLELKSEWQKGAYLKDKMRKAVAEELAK

[3] = biological target: protein kinases (human kinome) (Homo sapiens, UniProt Q00535); conditions: experiment wp146
[4] = biological target: protein kinases (human kinome) (Homo sapiens, UniProt Q9NYV4); conditions: experiment wp146
[5] = biological target: protein kinases (human kinome) (Homo sapiens, UniProt P50613); conditions: for logFC: CDK7 (P50613) protein abundance, degrader vs DMSO, down; for logFC CDK7: CDK7 P50613, experiment wp146
[6] = biological target: protein kinases (human kinome) (Homo sapiens, UniProt P51812); conditions: RPS6KA3 (P51812)
[7] = biological target: protein kinases (human kinome) (Homo sapiens, UniProt Q13233)
[8] = biological target: protein kinases (human kinome) (Homo sapiens, UniProt Q9HBH9); conditions: for logFC: MKNK2 (Q9HBH9-1); for logFC MKNK2 (Q9HBH9): Experiment wp152
[9] = experiment wp146, direction down
[10] = experiment wp168, direction down

Sequence of protein kinases (human kinome) (Homo sapiens, UniProt Q9NYV4) (Q9NYV4 whole entry): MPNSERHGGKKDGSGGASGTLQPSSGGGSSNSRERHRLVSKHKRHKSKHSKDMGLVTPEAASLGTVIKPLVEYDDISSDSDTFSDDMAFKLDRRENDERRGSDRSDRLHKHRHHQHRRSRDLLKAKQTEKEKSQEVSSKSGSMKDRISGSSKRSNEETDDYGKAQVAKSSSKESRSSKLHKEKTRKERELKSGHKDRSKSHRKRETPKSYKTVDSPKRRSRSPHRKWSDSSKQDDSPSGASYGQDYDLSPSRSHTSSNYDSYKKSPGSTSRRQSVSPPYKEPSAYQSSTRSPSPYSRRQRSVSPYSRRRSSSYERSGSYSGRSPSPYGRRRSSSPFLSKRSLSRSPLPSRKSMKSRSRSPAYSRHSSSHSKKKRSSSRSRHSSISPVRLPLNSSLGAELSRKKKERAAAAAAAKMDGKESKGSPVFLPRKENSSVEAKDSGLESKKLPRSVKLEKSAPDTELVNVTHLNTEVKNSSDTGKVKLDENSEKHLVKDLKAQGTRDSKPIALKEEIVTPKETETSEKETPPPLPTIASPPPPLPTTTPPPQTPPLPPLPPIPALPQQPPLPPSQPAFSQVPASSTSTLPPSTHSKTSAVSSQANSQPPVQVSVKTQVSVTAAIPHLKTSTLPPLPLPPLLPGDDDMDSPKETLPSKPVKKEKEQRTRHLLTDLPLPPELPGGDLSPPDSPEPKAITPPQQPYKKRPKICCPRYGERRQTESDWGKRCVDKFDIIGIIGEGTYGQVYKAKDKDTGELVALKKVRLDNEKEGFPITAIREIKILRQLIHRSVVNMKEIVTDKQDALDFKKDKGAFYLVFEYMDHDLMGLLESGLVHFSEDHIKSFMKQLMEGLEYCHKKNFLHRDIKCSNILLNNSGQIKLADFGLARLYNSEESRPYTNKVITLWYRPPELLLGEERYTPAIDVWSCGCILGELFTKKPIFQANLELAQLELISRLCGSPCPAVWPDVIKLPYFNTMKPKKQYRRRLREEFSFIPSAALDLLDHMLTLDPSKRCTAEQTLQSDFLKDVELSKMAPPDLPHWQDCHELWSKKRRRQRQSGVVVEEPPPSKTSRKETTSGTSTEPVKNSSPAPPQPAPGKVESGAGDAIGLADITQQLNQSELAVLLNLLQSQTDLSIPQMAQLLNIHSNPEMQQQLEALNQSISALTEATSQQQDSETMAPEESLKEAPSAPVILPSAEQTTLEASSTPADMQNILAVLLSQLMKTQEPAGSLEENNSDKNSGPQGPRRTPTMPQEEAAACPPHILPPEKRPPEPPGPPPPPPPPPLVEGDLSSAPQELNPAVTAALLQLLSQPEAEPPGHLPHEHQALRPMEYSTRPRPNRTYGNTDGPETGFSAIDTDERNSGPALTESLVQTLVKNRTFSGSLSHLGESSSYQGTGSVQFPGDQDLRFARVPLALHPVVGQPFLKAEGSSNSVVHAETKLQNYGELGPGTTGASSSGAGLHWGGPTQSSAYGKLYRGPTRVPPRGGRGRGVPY
Sequence of protein kinases (human kinome) (Homo sapiens, UniProt P50613) (P50613 whole entry): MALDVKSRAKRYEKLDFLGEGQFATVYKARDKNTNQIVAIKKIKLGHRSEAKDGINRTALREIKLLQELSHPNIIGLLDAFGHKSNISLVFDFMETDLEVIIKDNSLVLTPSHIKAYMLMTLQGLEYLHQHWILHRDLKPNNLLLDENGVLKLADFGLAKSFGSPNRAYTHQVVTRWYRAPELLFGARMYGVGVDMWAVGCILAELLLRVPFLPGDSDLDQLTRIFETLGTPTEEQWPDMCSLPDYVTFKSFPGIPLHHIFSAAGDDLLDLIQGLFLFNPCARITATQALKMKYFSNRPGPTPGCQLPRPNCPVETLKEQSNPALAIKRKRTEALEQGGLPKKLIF
Sequence of protein kinases (human kinome) (Homo sapiens, UniProt Q9HBH9) (Q9HBH9 whole entry): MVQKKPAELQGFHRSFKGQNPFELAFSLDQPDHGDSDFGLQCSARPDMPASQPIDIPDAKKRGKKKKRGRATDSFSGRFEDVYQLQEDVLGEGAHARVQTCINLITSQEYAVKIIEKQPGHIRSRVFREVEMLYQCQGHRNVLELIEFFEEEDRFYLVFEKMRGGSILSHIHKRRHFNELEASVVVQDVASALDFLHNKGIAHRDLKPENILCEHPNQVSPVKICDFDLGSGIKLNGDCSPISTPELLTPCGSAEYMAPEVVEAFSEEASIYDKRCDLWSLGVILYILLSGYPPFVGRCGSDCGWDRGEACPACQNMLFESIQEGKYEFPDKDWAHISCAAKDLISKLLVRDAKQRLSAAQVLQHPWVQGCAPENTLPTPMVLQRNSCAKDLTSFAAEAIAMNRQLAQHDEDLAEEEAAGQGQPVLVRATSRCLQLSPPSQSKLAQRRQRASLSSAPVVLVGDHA
Sequence of protein kinases (human kinome) (Homo sapiens, UniProt Q13233) (Q13233 whole entry): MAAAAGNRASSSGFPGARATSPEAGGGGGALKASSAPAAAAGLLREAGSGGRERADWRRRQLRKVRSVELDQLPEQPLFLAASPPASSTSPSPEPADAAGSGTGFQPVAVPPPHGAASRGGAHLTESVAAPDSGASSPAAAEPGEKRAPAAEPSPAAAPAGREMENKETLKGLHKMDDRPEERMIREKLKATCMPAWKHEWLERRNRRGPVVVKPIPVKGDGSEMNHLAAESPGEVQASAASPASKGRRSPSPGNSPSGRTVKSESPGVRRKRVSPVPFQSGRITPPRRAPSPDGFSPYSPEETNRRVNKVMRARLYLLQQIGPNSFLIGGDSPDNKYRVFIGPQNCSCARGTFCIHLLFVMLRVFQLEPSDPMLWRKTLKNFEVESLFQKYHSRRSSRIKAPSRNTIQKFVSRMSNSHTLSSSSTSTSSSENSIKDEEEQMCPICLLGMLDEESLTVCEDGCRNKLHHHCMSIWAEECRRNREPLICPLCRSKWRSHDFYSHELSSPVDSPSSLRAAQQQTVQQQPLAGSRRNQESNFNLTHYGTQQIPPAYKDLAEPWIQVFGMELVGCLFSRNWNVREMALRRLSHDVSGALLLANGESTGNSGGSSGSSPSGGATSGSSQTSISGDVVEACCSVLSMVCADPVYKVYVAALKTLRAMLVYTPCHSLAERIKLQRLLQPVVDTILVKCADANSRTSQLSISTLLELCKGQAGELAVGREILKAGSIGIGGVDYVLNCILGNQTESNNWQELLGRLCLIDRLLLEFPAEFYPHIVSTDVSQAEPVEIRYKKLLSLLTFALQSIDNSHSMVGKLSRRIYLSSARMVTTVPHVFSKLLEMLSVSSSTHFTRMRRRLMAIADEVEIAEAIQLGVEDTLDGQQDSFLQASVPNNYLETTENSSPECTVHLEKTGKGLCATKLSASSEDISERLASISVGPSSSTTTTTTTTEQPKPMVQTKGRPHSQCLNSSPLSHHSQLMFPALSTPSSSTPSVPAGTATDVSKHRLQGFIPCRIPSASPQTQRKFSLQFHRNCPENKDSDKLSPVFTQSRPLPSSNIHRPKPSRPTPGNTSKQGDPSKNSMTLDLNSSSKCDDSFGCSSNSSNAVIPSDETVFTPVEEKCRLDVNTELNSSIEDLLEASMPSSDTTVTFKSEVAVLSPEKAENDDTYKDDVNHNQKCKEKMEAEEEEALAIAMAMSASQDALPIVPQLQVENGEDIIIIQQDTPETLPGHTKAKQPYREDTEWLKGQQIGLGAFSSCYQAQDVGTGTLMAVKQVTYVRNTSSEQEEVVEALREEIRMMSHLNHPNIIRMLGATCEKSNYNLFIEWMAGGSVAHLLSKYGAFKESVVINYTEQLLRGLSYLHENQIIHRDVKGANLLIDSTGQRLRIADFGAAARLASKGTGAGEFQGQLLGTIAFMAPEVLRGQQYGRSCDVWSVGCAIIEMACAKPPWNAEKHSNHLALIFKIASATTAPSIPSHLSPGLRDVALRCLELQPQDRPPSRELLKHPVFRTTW
Sequence of protein kinases (human kinome) (Homo sapiens, UniProt Q8NI60) (Q8NI60 163-647): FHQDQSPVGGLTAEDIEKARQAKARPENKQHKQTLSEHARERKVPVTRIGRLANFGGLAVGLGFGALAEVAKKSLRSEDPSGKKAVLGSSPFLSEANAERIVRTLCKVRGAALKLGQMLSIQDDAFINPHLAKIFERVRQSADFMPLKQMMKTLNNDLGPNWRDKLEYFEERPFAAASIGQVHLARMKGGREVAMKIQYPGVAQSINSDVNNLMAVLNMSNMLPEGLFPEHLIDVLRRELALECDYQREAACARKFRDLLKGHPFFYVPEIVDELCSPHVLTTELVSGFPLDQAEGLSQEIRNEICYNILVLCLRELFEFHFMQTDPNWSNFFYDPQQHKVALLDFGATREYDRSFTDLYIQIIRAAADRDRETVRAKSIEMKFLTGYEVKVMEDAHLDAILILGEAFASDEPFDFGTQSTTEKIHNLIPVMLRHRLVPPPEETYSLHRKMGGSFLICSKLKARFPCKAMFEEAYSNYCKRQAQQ
Sequence of protein kinases (human kinome) (Homo sapiens, UniProt P51812) (P51812 whole entry): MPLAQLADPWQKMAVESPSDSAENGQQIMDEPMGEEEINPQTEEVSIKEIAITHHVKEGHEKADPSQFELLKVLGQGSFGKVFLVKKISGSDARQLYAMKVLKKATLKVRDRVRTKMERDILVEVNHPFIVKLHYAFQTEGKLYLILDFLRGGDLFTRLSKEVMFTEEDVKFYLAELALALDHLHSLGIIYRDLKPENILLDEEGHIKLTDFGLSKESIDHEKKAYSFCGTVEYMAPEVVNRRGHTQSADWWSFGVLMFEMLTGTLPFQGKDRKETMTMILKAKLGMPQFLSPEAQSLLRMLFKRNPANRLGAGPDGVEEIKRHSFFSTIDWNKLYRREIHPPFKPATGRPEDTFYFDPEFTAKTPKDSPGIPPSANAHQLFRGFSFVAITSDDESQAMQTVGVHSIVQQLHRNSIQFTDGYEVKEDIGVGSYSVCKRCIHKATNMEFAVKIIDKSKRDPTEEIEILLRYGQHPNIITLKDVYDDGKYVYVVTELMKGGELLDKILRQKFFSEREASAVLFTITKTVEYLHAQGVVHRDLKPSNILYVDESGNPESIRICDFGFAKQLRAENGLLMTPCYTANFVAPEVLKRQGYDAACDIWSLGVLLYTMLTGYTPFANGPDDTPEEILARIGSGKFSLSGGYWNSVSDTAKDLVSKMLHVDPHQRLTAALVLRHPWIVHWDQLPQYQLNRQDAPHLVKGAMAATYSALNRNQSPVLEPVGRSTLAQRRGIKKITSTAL

CN(C)C(=O)c1cc2cnc(Nc3ccc(N4CCN(CCCCNC(=O)COc5cccc6c5C(=O)N(C5CCC(=O)NC5=O)C6=O)CC4)cn3)nc2n1C1CCCC1 (stereo not shown) [BSJ.04.132]
logFC COQ8A (Q8N160-1) ([1]; experiment wp084): −0.5939
logFC COQ8A (Q8NI60-1) ([1]; experiment wp084): −0.6939
logFC TBRG4 ([2]; experiment wp084): −0.6395

O=C(COc1cccc2c1C(=O)N(C1CCC(=O)NC1=O)C2=O)NCCCCCCCC(=O)NC1(c2ccc(-c3nc4ccn5c(=O)[nH]nc5c4cc3-c3ccccc3)cc2)CCC1 (stereo not shown) [INY.01.140.1]
logFC TBRG4 ([2]; experiment wp081): −0.4208

Cc1cc(Nc2ncc(Br)c(Nc3cccc(F)c3C(N)=O)n2)ccc1S(=O)(=O)NCCOCCOCCOCCOCCNc1cccc2c1C(=O)N(C1CCC(=O)NC1=O)C2=O (stereo not shown) [TMX.02.174]
logFC CDK5 (Q00535) [3]: −3.161
logFC CDK5 (Q00535) ([3]; direction of change down): −3.161
logFC CDK12 ([4]; Accession Q9NYV4-1): −0.8562
logFC CDK12 ([4]; CDK12 (Q9NYV4-1)): −0.8562
logFC [5]: −0.584
logFC CDK7 [5]: −0.584
logFC ([6]; experiment wp146): −0.4312
logFC [6, 9]: −0.4312

Cc1ccc(NC(=O)c2cccc(C(F)(F)F)c2)cc1N1Cc2cnc(Nc3ccc(N4CCN(CCCOc5cccc6c5C(=O)N(C5CCC(=O)NC5=O)C6=O)CC4)nc3)nc2N(C)C1=O (stereo not shown) [DB0662]
logFC MAP3K1 ([7]; Accession Q13233, experiment wp168, direction down): −0.7087
logFC MAP3K1 ([7]; MAP3K1 (Q13233), experiment wp168): −0.7087
logFC MKNK2 (Q9HBH9-1) ([8]; Experiment wp168, direction down): −0.4185
logFC ([8]; experiment wp168): −0.4185
logFC ([6]; experiment wp168): −0.452
logFC [6, 10]: −0.452

CC(C)(C)c1nc(-c2cccc(NS(=O)(=O)c3c(F)cccc3F)c2F)c(-c2ccnc(NCCOCCNC(=O)CCOCCOCCNc3cccc4c3C(=O)N(C3CCC(=O)NC3=O)C4=O)n2)s1 (stereo not shown) [DD.03.106]
logFC COQ8A (Q8N160-1) ([1]; experiment wp147, 1 uM): −0.3548
logFC COQ8A (Q8NI60-1) ([1]; experiment wp147, 1 uM): −0.3548
logFC COQ8A (Q8N160-1) ([1]; experiment wp147, 4 uM): −0.8159
logFC COQ8A (Q8NI60-1) ([1]; experiment wp147, 4 uM): −0.8159
logFC TBRG4 ([2]; experiment wp147, 4 uM): −0.7514

NC(=O)c1c(F)cccc1Nc1nc(Nc2ccc(S(=O)(=O)NCCOCCOCCOCCOCCNc3cccc4c3C(=O)N(C3CCC(=O)NC3=O)C4=O)cc2)ncc1Br (stereo not shown) [TMX.02.138]
logFC CDK5 (Q00535) [3]: −3.29
logFC CDK5 (Q00535) ([3]; direction of change down): −3.29
logFC CDK12 ([4]; Accession Q9NYV4-1): −1.018
logFC CDK12 ([4]; CDK12 (Q9NYV4-1)): −1.018
logFC [5]: −0.5239
logFC CDK7 [5]: −0.5239
logFC ([6]; experiment wp146): −0.4023
logFC [6, 9]: −0.4023

Cc1ccc(NC(=O)c2cccc(C(F)(F)F)c2)cc1N1Cc2cnc(Nc3ccc(N4CCN(Cc5cn(CCCCCOc6cccc7c6C(=O)N(C6CCC(=O)NC6=O)C7=O)nn5)CC4)nc3)nc2N(C)C1=O (stereo not shown) [DB0646, N-(3-(7-((6-(4-((1-(5-((2-(2,6-Dioxopiperidin-3-yl)-1,3-dioxoisoindolin-4-yl)oxy)pentyl)-1H-1,2,3-triazol-4-yl)methyl)piperazin-1-v)pyridin-3-yl)amino)-1-methyl-2-oxo-1,4-dihydropyrimido[4,5-d]pyrimidin-3(2H)-yl)-4-methylphenyl)-3-(trifluoromethyl)benzamide]
logFC MAP3K1 ([7]; Accession Q13233, experiment wp107, direction down): −0.3767
logFC MAP3K1 ([7]; Accession Q13233, experiment wp152, direction down): −0.6139
logFC MAP3K1 ([7]; Accession Q13233, experiment wp160, 8 hr, direction down): −0.7241
logFC MAP3K1 ([7]; MAP3K1 (Q13233), experiment wp107): −0.3767
logFC MAP3K1 ([7]; MAP3K1 (Q13233), experiment wp152): −0.6139
logFC MAP3K1 ([7]; MAP3K1 (Q13233), experiment wp160, 8 hr): −0.7241
logFC MKNK2 (Q9HBH9-1) ([8]; Experiment wp045, direction down): −0.4463
logFC MKNK2 (Q9HBH9-1) ([8]; Experiment wp117, direction down): −0.3794
logFC MKNK2 (Q9HBH9) ([8]; direction down): −0.4447
logFC MKNK2 (Q9HBH9) ([8]; direction of change down): −0.4447
logFC MKNK2 (Q9HBH9-1) ([8]; Experiment wp160, 4 hr, direction down): −0.5226
logFC MKNK2 (Q9HBH9-1) ([8]; Experiment wp160, 8 hr, direction down): −0.6422
logFC ([8]; experiment wp045): −0.4463
logFC ([8]; experiment wp117): −0.3794
logFC ([8]; experiment wp160, 4 hr): −0.5226
logFC ([8]; experiment wp160, 8 hr): −0.6422
logFC ([6]; experiment wp160, 8 hr): −0.3332
logFC ([6]; experiment wp160, 8 hr, direction down): −0.3332

Cn1c(=O)c(-c2c(Cl)cccc2Cl)cc2cnc(Nc3ccc(OCCNC(=O)CCCCCCNC(=O)COc4cccc5c4C(=O)N(C4CCC(=O)NC4=O)C5=O)cc3)nc21 (stereo not shown) [SB1.G.192.1]
logFC TBRG4 ([2]; experiment wp081): −0.3452

CC(C)(C)c1nc(-c2cccc(NS(=O)(=O)c3c(F)cccc3F)c2F)c(-c2ccnc(NCCOCCNC(=O)CCOCCOCCNc3cccc4c3CN(C3CCC(=O)NC3=O)C4=O)n2)s1 (stereo not shown) [DD.03.107]
logFC COQ8A (Q8N160-1) ([1]; experiment wp147, 1 uM): −0.6678
logFC COQ8A (Q8NI60-1) ([1]; experiment wp147, 1 uM): −0.6678
logFC COQ8A (Q8N160-1) ([1]; experiment wp147, 2 uM): −0.6288
logFC COQ8A (Q8NI60-1) ([1]; experiment wp147, 2 uM): −0.6288
logFC COQ8A (Q8N160-1) ([1]; experiment wp147, 4 uM): −1.121
logFC COQ8A (Q8NI60-1) ([1]; experiment wp147, 4 uM): −1.121
logFC TBRG4 ([2]; experiment wp147, 1 uM): −0.6245
logFC TBRG4 ([2]; experiment wp147, 2 uM): −0.6284
logFC TBRG4 ([2]; experiment wp147, 4 uM): −1.105

Cc1ccc(NC(=O)c2cccc(C(F)(F)F)c2)cc1N1Cc2cnc(Nc3ccc(N4CCN(CCCCC(=O)N[C@H](C(=O)N5C[C@H](O)C[C@H]5C(=O)N[C@@H](C)c5ccc(-c6scnc6C)cc5)C(C)(C)C)CC4)nc3)nc2N(C)C1=O [DB1113]
logFC ([6]; experiment wp168): −0.5079
logFC [6, 10]: −0.5079
